Experimental data published in US11897961B2, “Anti-CD123 antibodies and conjugates and derivatives thereof” (IMMUNOGEN, INC., priority 2015, dated 2024).

Experiments:
[1] = test system: EOL-1 cells; test: EOL-1 subcutaneous model in athymic nude mice, third study
[2] = test system: normal blood cells / normal progenitor cells versus AML progenitors; test: Cytotoxicity on normal blood / normal progenitor cells versus AML progenitors; assay type: cell-based, human; settings: FIG. 11E and FIG. 19
[3] = test system: TF-1 cells; test: Proliferation of TF-1 cells grown in the presence of GM-CSF (IL-3-dependence control); assay type: cell-based, human; settings: GM-CSF 2 ng/mL
Experimental: (§1) The ability of anti-CD123 antibodies to inhibit IL3-mediated signaling and proliferation was examined in vitro using the erythroleukemia cell line TF-1 that can proliferate only in the presence of one of the following growth factors, either IL-3 or GM-CSF. TF-1 cells were cultured in the complete RPMI medium (RPMI-1640, 10% fetal bovine serum and 50 μg/mL gentamicin sulfate; all reagents were from Invitrogen) supplemented with GM-CSF (2 ng/mL). Prior to setting up the proliferation assays, the cells were washed and then starved of the growth factors overnight. […] TF-1 cells were plated at 6,000 cells per well in the complete RPMI medium in either the presence or absence of 10 μg/mL of an anti-CD123 antibody. A growth factor, either IL-3 (1 ng/mL) or GM-CSF (2 ng/mL), was added to the cells to initiate cell proliferation. […] The relative numbers of viable cells in each well were determined by the colorimetric WST-8 assay (Dojindo Molecular Technologies, Inc., Rockville, MD, US). WST-8 is reduced by dehydrogenases in viable cells to an orange formazan product that is soluble in tissue culture medium. The amount of formazan produced is directly proportional to the number of viable cells. […] Then the absorbance was measured on a plate-reader spectrophotometer in the dual wavelength mode 450 nm/650 nm, and the absorbance at the 650 nm (non-specific light scattering by cells) was subtracted from that at the 450 nm.

[4] = test system: TF-1 cells; test: Inhibition of IL-3-dependent proliferation of TF-1 cells (WST-8); assay type: cell-based, human; settings: dose-response
Experimental: as §1, with “US).” for “US). WST-8 is reduced by dehydrogenases in viable cells to an orange formazan product that is soluble in tissue culture medium. The amount of formazan produced is directly proportional to the number of viable cells.”
TF-1 cells were plated at 6,000 cells per well in 100 μL culture medium. […] Relative cell number in each well was determined by WST-8 assay as described above. […]

## Nc1ncn([C@@H]2O[C@H](CO)[C@@H](O)[C@H]2O)c(=O)n1 [Azacitidine]
[1]; 3.75 mg/kg, q3d × 5, i.p.
  % T/C (Day 16): 59%
  CR: 0/8
  PR: 0/8
  Result: Inactive

## Nc1ccn([C@@H]2O[C@H](CO)[C@@H](O)[C@@H]2O)c(=O)n1 [Cytarabine]
[1]; 75 mg/kg, qd × 5, i.p.
  % T/C (Day 16): 84%
  CR: 0/8
  PR: 0/8
  Result: Inactive

## gemtuzumab ozogamicin [Mylotarg]
[2]
  fold difference in cytotoxicity between normal blood/progenitor cells and AML progenitor cells: 10 fold

B1: muCD123-14: murine anti-CD123 monoclonal antibody, HCVR SEQ ID NO: 30, LCVR SEQ ID NO: 31 (antibody, V domains shown)
VH: EVKLVESGGDLVKPGGSLKLSCAASGFTFSNYAMSWVRQNSEKRLEWVATINSGGSFTYYPDSVKGRFTISRDNAKDSLYLQMSSLNSEDTAMYYCARQSEAYYGYDKRTWFAYWGQGTLVTVSS
VL: DILLTQSPAILSVSPGTRVSFSCRASQSVGTSIHWYQQRPNGFPRLLIKYASESISGIPSRFSGSGSGTDFTLNINSVESEDIADYYCQQSKSWPLTFGAGTKLELKR
[3]
  effect on TF-1 cell proliferation in the presence of GM-CSF: no inhibitory effect

B2: muCD123-6: murine anti-CD123 monoclonal antibody, HCVR SEQ ID NO: 28, LCVR SEQ ID NO: 29 (antibody, V domains shown)
VH: EFQLQQSGPELVKPGASVKMSCKASGYIFTSSIMHWMKQKPGQGLEWIGYIKPYNDGTKYNEKFKGKATLTSDKSSSTANMELNSLTSEDSAVYYCAREGGNDYYDTMDYWGQGTSVTVSS
VL: DIKMTQSPSSMYASLGERVTITCKASQDINSYLSWFQQKPGKSPKTLIYRVNRLVDGVPSRFSGSGSGQDYSLTISSLEYEDMGIYYCLQYDAFPYTFGGGTKLEIKR
[3]
  effect on TF-1 cell proliferation in the presence of GM-CSF: no inhibitory effect

B3: chCD123-6: chimeric antibody: mouse HCVR/LCVR SEQ ID NOs: 28 and 29 with human IgG1 and Kappa constant sequences (antibody, V domains shown)
VH: EFQLQQSGPELVKPGASVKMSCKASGYIFTSSIMHWMKQKPGQGLEWIGYIKPYNDGTKYNEKFKGKATLTSDKSSSTANMELNSLTSEDSAVYYCAREGGNDYYDTMDYWGQGTSVTVSS
VL: DIKMTQSPSSMYASLGERVTITCKASQDINSYLSWFQQKPGKSPKTLIYRVNRLVDGVPSRFSGSGSGQDYSLTISSLEYEDMGIYYCLQYDAFPYTFGGGTKLEIKR
modifications: human IgG1 and kappa constant regions
[4]
  inhibition of IL-3-dependent proliferation of TF-1 cells (in words): completely inhibited at 1 nM
[3]
  effect on TF-1 cell proliferation in the presence of GM-CSF: no inhibitory effect

B4: muCD123-3: murine anti-CD123 monoclonal antibody, HCVR SEQ ID NO: 26, LCVR SEQ ID NO: 27 (antibody, V domains shown)
VH: EFQLQQSGPEVVKPGASVKMSCKASGYTFTSYVMHWMKQKPGQGLEWIGYIKPYKDGTKYNEKFKGKATLISDKPSSTAYMELSSLTSEDSAVYYCAREGENGYYDAMDYWGQGTSVTVSS
VL: DIQMTQSPSSLSASLGGKVTITCKASQDINKYIAWYQHKPGKGPRLLIHYTSTLQPGIPSRFSGSGSGRDYSFSISNLEPEDIATYYCLQYDNLLYTFGGGTKLELKR
[3]
  effect on TF-1 cell proliferation in the presence of GM-CSF: no inhibitory effect
